The values below come from patent US20230390384A1 (priority 2020, published 2023).

“Also recorded” adds a separate entry of the source.

The assay has as its system RBD, a South African mutant antigen of COVID-19. Further details: species or system SARS-CoV-2. The settings on record: in vivo.

For the substance FSL-1, the “antigen-specific antibody titer (RBD South African mutant)” value is “higher antibody titer; also recorded: highest antibody titer”.
For “N-palmitoyl-S-[2,3-bis(palmitoyloxy)-(2RS)-propyl]-[R]-cystein-SKKKK [Pam3CSK4]”, the “antigen-specific antibody titer (RBD South African mutant)” value is listed as “higher antibody titer; also recorded: highest antibody titer”.
